Assay [1] relates to branched chain alpha-ketoacid decarboxylase (BCKA). Particulars: cited from earlier work.
The target in assay [2] is T1, adh1 from Geobacillus thermoglucosidasius M10EXG (Geobacillus sp. M10EXG, UniProt Q6RS93).
T1 sequence (Q6RS93 1-340): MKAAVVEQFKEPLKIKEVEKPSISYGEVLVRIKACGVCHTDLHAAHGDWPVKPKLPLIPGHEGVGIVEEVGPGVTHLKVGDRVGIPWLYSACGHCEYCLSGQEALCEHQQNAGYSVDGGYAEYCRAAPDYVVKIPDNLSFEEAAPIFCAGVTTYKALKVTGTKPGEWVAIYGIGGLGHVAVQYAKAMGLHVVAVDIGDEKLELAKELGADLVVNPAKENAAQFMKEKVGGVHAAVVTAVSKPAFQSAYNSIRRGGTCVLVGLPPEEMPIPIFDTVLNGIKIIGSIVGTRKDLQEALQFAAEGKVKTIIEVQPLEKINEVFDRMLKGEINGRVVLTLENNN
The assay can be described thus: ADH enzyme assay of E. coli expressed Adh1 enzyme (084). In kind it is biochemical. Conditions: reduction by Adh1 enzyme (084) expressed in E. coli. As to the method: Alcohol (ADH) and aldehyde (ALD) dehydrogenase was assayed in the reductive direction using a procedure adapted from several literature sources (Durre et al., FEMS Microbiol. Rev. 17:251-262 (1995); Palosaari and Rogers, J. Bacteriol. 170:2971-2976 (1988) and Welch et al., Arch. Biochem. Biophys. 273:309-318 (1989)). The oxidation of NADH is followed by reading absorbance at 340 nm every four seconds for a total of 240 seconds at room temperature. The reductive assays were performed in 100 mM MOPS (adjusted to pH 7.5 with KOH), 0.4 mM NADH, and from 1 to 50 μl of cell extract. The reaction is started by adding the following reagents: 100 μl of 100 mM acetaldehyde or butyraldehyde for ADH, or 100 μl of 1 mM acetyl-CoA or butyryl-CoA for ALD. The Spectrophotometer is quickly blanked and then the kinetic read is started. The resulting slope of the reduction in absorbance at 340 nm per minute, along with the molar extinction coefficient of NAD(P)H at 340 nM (6000) and the protein concentration of the extract, can be used to determine the specific activity.
Multiple alcohol dehydrogenases were screened for their ability to catalyze the reduction of 4-hydroxybutanal to 14-BDO.
The Adh1 enzyme (084) expressed very well from its native gene in E. coli (see FIG. 8A).

Assay [3] deals with aminotransferase from Leishmania mexicana. Particulars: activity considered 100% on tyrosine; cited from earlier work.

Each structure is given as a SMILES string.

Turning to `O=C(O)CCC(=O)C(=O)O` [2-Oxoglutarate], in assay [1], the “decarboxylation activity relative to other branched-chain substrates” value is 5%. Turning to `O=CCCCO` [Gene 4HB-aldehyde, 4-hydroxybutyraldehyde], in assay [2], the Km (as a rule, the substrate concentration at which the rate is half of its maximum) was found to be 4000 µM. Same read-out and setting: under `CCCC=O` [butyraldehyde] stands 1200 µM. As for `CC(C)C[C@H](N)C(=O)O` [leucine], the aminotransferase activity in assay [3] is 25%. In the case of `CSCC[C@H](N)C(=O)O` [methionine], the aminotransferase activity in assay [3] is reported as 25%. As to `N[C@@H](Cc1ccccc1)C(=O)O` [phenylalanine], in assay [3], the aminotransferase activity is listed as 90%. As for `N[C@@H](Cc1c[nH]c2ccccc12)C(=O)O` [tryptophan], in assay [3], the aminotransferase activity is given as 85%.

With `N[C@@H](Cc1ccc(O)cc1)C(=O)O` [tyrosine], the aminotransferase activity in assay [3] was 100%.

The record behind these values is US10662451B2, “Microorganisms and methods for the coproduction 1,4-butanediol and gamma-butyrolactone” (priority 2009, dated 2020).
